Measurements reported in patent publication US6310095A, “Inhibitors of protein isoprenyl transferases” (University of Pittsburgh, priority 1998, dated 2001).

Target: T1, protein farnesyltransferase (Rattus norvegicus, UniProt Q02293+Q04631)
T1 construct: Rat brain protein farnesyltransferase activity is measured; from tissue; host or cells: rat brain; purified according to Reiss et al., Cell 62:81-88 (1990), steps one through three
Assay: in vitro inhibition of protein farnesyltransferase (scintillation proximity assay, biotin-K Ras B fragment)
Type: biochemical
Settings: at 1 × 10^-5 M
Outline: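 Scintillation proximity read-out of farnesylation, using a biotinylated K Ras B fragment (0.1 mM final) in place of biotin-lamin. Enzyme purified from rat brain; results given as % inhibition.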

inhibition at 10 µM [%]	Structure (SMILES)
48	CSCC[C@H](NC(=O)c1ccc(CNc2ccccc2N(C)C)cc1-c1ccccc1)C(=O)O [Example 672]
40	CSCC[C@H](NC(=O)c1ccc(CNc2cccc(C)c2)cc1-c1ccccc1)C(=O)O [Example 674]
76	CSCC[C@H](NC(=O)c1ccc(CNc2cccc(O)c2)cc1-c1ccccc1)C(=O)O [Example 676]
73	CSCC[C@H](NC(=O)c1ccc(CNc2cccc(OC(F)(F)F)c2)cc1-c1ccccc1)C(=O)O [Example 678]
58	CSCC[C@H](NC(=O)c1ccc(CNc2cccc(CO)c2)cc1-c1ccccc1)C(=O)O [Example 680]
57	CSCC[C@H](NC(=O)c1ccc(CNc2cccc(N(C)C)c2)cc1-c1ccccc1)C(=O)O [Example 683]
48	CSCC[C@H](NC(=O)c1ccc(CNc2cccc(CC(=O)O)c2)cc1-c1ccccc1)C(=O)O [Example 684]
55	CSCC[C@H](NC(=O)c1ccc(CNc2cccc(CCC(=O)O)c2)cc1-c1ccccc1)C(=O)O [Example 685]
48	CSCC[C@H](NC(=O)c1ccc(CNc2cccc(Oc3ccccc3)c2)cc1-c1ccccc1)C(=O)O [Example 686]
78	CSCC[C@H](NC(=O)c1ccc(CNc2ccc(F)cc2)cc1-c1ccccc1)C(=O)O [Example 687]
71	CSCC[C@H](NC(=O)c1ccc(CNc2ccc(I)cc2)cc1-c1ccccc1)C(=O)O [Example 688]
73	CSCC[C@H](NC(=O)c1ccc(CNc2ccc(O)cc2)cc1-c1ccccc1)C(=O)O [Example 689]
61	COc1ccc(NCc2ccc(C(=O)N[C@@H](CCSC)C(=O)O)c(-c3ccccc3)c2)cc1 [Example 690]
74	CSCC[C@H](NC(=O)c1ccc(CNc2ccc(C(C)C)cc2)cc1-c1ccccc1)C(=O)O [Example 692]
74	CSCC[C@H](NC(=O)c1ccc(CNc2ccc(C3CCCCC3)cc2)cc1-c1ccccc1)C(=O)O [Example 699]
68	CSCC[C@H](NC(=O)c1ccc(CNc2ccc(-c3ccccc3)cc2)cc1-c1ccccc1)C(=O)O [Example 700]
64	CSCC[C@H](NC(=O)c1ccc(CNc2ccc(Oc3ccccc3)cc2)cc1-c1ccccc1)C(=O)O [Example 701]

inhibition at 10 µM [%]	Structure (SMILES)
79	CSCC[C@H](NC(=O)c1ccc(CNc2ccc(C(=O)c3ccccc3)cc2)cc1-c1ccccc1)C(=O)O [Example 702]
67	CSCC[C@H](NC(=O)c1ccc(CNc2ccc(C)c(C)c2)cc1-c1ccccc1)C(=O)O [Example 704]
72	CSCC[C@H](NC(=O)c1ccc(CNc2ccc3c(c2)CCC3)cc1-c1ccccc1)C(=O)O [Example 705]
53	CSCC[C@H](NC(=O)c1ccc(CNc2ccc3c(c2)Cc2ccccc2-3)cc1-c1ccccc1)C(=O)O [Example 706]
76	CSCC[C@H](NC(=O)c1ccc(CNc2ccc3ncccc3c2)cc1-c1ccccc1)C(=O)O [Example 708]
55	CSCC[C@H](NC(=O)c1ccc(CNc2cc(C)cc(C)c2)cc1-c1ccccc1)C(=O)O [Example 709]
45	CSCC[C@H](NC(=O)c1ccc(CNc2cc(C(=O)O)cc(C(=O)O)c2)cc1-c1ccccc1)C(=O)O [Example 710]
46	CCN(Cc1ccc(C(=O)N[C@@H](CCSC)C(=O)O)c(-c2ccccc2)c1)Cc1cc([N+](=O)[O-])ccc1O [Example 711]
69	CSCC[C@H](NC(=O)c1ccc(CNCc2cc(Cl)cc(Cl)c2)cc1-c1ccccc1)C(=O)O [Example 712]
40	CSCC[C@H](NC(=O)c1ccc(CNC(CO)C(O)c2ccccc2)cc1-c1ccccc1)C(=O)O (stereo partly shown) [Example 713]
56	CSCC[C@H](NC(=O)c1ccc(CNC(CO)Cc2ccccc2)cc1-c1ccccc1)C(=O)O (stereo partly shown) [Example 714]
67	CSCC[C@H](NC(=O)c1ccc(CN[C@H](CC2CCCCC2)[C@H](O)[C@H](O)CC(C)C)cc1-c1ccccc1)C(=O)O [Example 715]
40	CSCC[C@H](NC(=O)c1ccc(CNCCCCc2ccccc2)cc1-c1ccccc1)C(=O)O [Example 718]
44	CSCC[C@H](NC(=O)c1ccc(NC(=O)CCN)cc1-c1ccccc1)C(=O)O [Example 750]
58	CSCC[C@H](NC(=O)c1ccc(NC(=O)c2cccc(N(C)C)c2)cc1-c1ccccc1)C(=O)O [Example 752]
55	COc1cc(Cl)ccc1C(=O)Nc1ccc(C(=O)N[C@@H](CCSC)C(=O)O)c(-c2ccccc2)c1 [Example 753]
40	COc1ccc(Br)c(C(=O)Nc2ccc(C(=O)N[C@@H](CCSC)C(=O)O)c(-c3ccccc3)c2)c1 [Example 754]

Same assay, conditions: at 1 × 10^-6 M

% inhibition of farnesyltransferase [%]	Structure (SMILES)
84	CSCC[C@H](NC(=O)c1ccc(CSc2nc(O)cc(Cc3ccccc3)n2)cc1-c1ccccc1C)C(=O)O [Example 744]

Same assay, conditions: at 1 × 10^-6 M; read-out: % inhibition of farnesyltransferase

inhibition at 1 µM [%]	Structure (SMILES)
82	CSCC[C@H](NC(=O)c1ccc(CN[C@H](/C=C\CC(C)C)CC2CCCCC2)cc1-c1ccccc1)C(=O)O [Example 666]
83	CSCC[C@H](NC(=O)c1ccc(CNCCSc2ccccc2)cc1-c1ccccc1)C(=O)O [Example 667]
36	CSCC[C@H](NC(=O)c1ccc(CNc2ccccc2CCO)cc1-c1ccccc1)C(=O)O [Example 671]
59	CSCC[C@H](NC(=O)c1ccc(CNc2ccccc2N2CCCCC2)cc1-c1ccccc1)C(=O)O [Example 673]
37	CSCC[C@H](NC(=O)c1ccc(CNc2cccc(I)c2)cc1-c1ccccc1)C(=O)O [Example 677]
31	CSCC[C@H](NC(=O)c1ccc(CNc2cccc(C(N)=O)c2)cc1-c1ccccc1)C(=O)O [Example 682]
34	CSCC[C@H](NC(=O)c1ccc(CNc2ccc(OC(F)(F)F)cc2)cc1-c1ccccc1)C(=O)O [Example 691]
53	CSCC[C@H](NC(=O)c1ccc(CNc2ccc(C(O)(C(F)(F)F)C(F)(F)F)cc2)cc1-c1ccccc1)C(=O)O [Example 693]
45	CSCC[C@H](NC(=O)c1ccc(CNc2ccc(CCO)cc2)cc1-c1ccccc1)C(=O)O [Example 694]
39	CSCC[C@H](NC(=O)c1ccc(CNc2ccc(N3CCCCC3)cc2)cc1-c1ccccc1)C(=O)O [Example 697]
40	CSCC[C@H](NC(=O)c1ccc(CNc2ccc(-c3nc4ccccc4s3)cc2)cc1-c1ccccc1)C(=O)O [Example 703]
69	CSCC[C@H](NC(=O)c1ccc(CN[C@@H](CC2CCCCC2)[C@@H](O)[C@@H](O)CC(C)C)cc1-c1ccccc1)C(=O)O [Example 716]
90	CSCC[C@H](NC(=O)c1ccc(CN(C)CC(O)CO)cc1-c1ccccc1C)C(=O)O (stereo partly shown) [Example 719]
87	CCc1nnc(NCc2ccc(C(=O)N[C@@H](CCSC)C(=O)O)c(-c3ccccc3C)c2)s1 [Example 723]
87	COC(=O)c1cscc1NCc1ccc(C(=O)N[C@@H](CCSC)C(=O)O)c(-c2ccccc2C)c1 [Example 724]
81	CSCC[C@H](NC(=O)c1ccc(CNc2ccc(S(=O)(=O)Nc3onc(C)c3C)cc2)cc1-c1ccccc1C)C(=O)O [Example 726]
95	CSCC[C@H](NC(=O)c1ccc(CN[C@H](CO)Cc2ccccc2)cc1-c1ccccc1C)C(=O)O [Example 727]
84	CNCC(=O)Nc1ccc(C(=O)N[C@@H](CCSC)C(=O)O)c(-c2ccccc2)c1 [Example 749]
32	CSCC[C@H](NC(=O)c1ccc(NC(=O)C[C@H]2C[C@@H](C(C)=O)C2(C)C)cc1-c1ccccc1)C(=O)O [Example 751]

Same assay, conditions: at 1 × 10^-7 M

% inhibition of farnesyltransferase [%]	Structure (SMILES)
96	CSCC[C@H](NC(=O)c1ccc(CSC2=NCCS2)cc1-c1ccccc1C)C(=O)O [Example 730]
84	CSCC[C@H](NC(=O)c1ccc(CSc2nc3ccccc3[nH]2)cc1-c1ccccc1C)C(=O)O [Example 732]
60	CSCC[C@H](NC(=O)c1ccc(CSc2nc3cc(C)ccc3[nH]2)cc1-c1ccccc1C)C(=O)O [Example 733]
49	CSCC[C@H](NC(=O)c1ccc(CSc2nnc(N)s2)cc1-c1ccccc1C)C(=O)O [Example 734]
96	CSCC[C@H](NC(=O)c1ccc(CSc2nnc[nH]2)cc1-c1ccccc1C)C(=O)O [Example 735]
83	CSCC[C@H](NC(=O)c1ccc(CSc2ccccc2C(C)C)cc1-c1ccccc1C)C(=O)O [Example 739]
94	CSCC[C@H](NC(=O)c1ccc(CSc2ccc(F)cc2)cc1-c1ccccc1C)C(=O)O [Example 740]
89	CSCC[C@H](NC(=O)c1ccc(CSc2ccc(C)cc2C)cc1-c1ccccc1C)C(=O)O [Example 741]
51	CSCC[C@H](NC(=O)c1ccc(CSc2nc(C)cc(C)n2)cc1-c1ccccc1C)C(=O)O [Example 743]
93	CSCC[C@H](NC(=O)c1ccc(CSc2nc3ccccc3c(=O)[nH]2)cc1-c1ccccc1C)C(=O)O [Example 745]
84	CSCC[C@H](NC(=O)c1ccc(CSc2ncnc3[nH]ncc23)cc1-c1ccccc1C)C(=O)O [Example 746]
68	CSCC[C@H](NC(=O)c1ccc(CSc2ncnc3[nH]cnc23)cc1-c1ccccc1C)C(=O)O [Example 747]

Same assay, conditions: at 1 × 10^-7 M; read-out: % inhibition of farnesyltransferase

inhibition at 0.1 µM [%]	Structure (SMILES)
56	CSCC[C@H](NC(=O)c1ccc(NC(=O)CN)cc1-c1ccccc1)C(=O)O [Example 748]
